The test deals with T1, human mAChR M4 (Homo sapiens, UniProt P08173).
T1 construct: expressed in transfected cells; host or cells: CHO-K1 (ATCC), stably expressing hM4 and Gqi5
T1 sequence (P08173 1-479): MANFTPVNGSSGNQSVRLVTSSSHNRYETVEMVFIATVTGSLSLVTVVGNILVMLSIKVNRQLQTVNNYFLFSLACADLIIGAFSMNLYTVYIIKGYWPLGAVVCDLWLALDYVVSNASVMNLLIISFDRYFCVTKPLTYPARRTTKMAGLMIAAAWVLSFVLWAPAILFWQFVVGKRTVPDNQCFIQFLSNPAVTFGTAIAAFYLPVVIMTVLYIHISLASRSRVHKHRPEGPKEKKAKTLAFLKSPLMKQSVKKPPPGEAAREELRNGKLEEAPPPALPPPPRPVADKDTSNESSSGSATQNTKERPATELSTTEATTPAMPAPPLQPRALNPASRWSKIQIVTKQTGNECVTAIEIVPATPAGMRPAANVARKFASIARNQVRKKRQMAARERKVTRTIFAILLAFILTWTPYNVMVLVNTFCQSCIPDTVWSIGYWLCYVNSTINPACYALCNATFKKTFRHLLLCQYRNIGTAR
Nature of the test: mAChR M4 cell-based functional assay: calcium flux (Fluo-4, FDSS), positive allosteric modulator activity on the EC20 acetylcholine response, hM4-Gqi5 CHO-K1 cells. Further details: Emax: dose or concentration left out as unconfirmed. To be noted: for Emax at 30 µM: CHO-K1, human M4, % ACh maximum at 30 μM; for EC50: PAM activity on EC20 acetylcholine response, calcium flux. Put shortly:
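CHO-K1 cells stably expressing human M4 with chimeric Gqi5, loaded with Fluo-4 AM for 50 min at 37° C. Compounds (11-point, 1:3 dilutions) added first, then an acetylcholine EC20 at 144 s; calcium read on FDSS at 1 Hz. EC50 is the half-maximal increase above the EC20 baseline, four-parameter logistic fit.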

Setting [1] is: human M4, read-out: Human M4 EC50.

Structures are written as SMILES. Like-named read-outs stand apart in the source and are kept apart here. Where only a bound is given, the exact number is not on record here.

As for `Cc1nn(C)cc1-c1cnc2c(c1)CN(c1ncnc3cc(F)c(F)cc13)CC2` [Compound 8, 4-[3-(1,3-dimethylpyrazol-4-yl)-7,8-dihydro-5H-1,6-naphthyridin-6-yl]-6,7-difluoro-quinazoline], the Emax at 30 µM is 87%. The EC50 under setting [1] came out at 60 nM.
On the same counts, the results for `Cc1ccc(Oc2cnc3c(c2)CN(c2nc(C)nc4ccc(Cl)cc24)CC3)c(F)c1` [Compound 147, 6-chloro-4-[3-(2-fluoro-4-methyl-phenoxy)-7,8-dihydro-5H-1,6-naphthyridin-6-yl]-2-methyl-quinazoline] are 54% and 8340 nM.
The matching figures for `Cc1nc(N2CCc3ncc(-c4ccnn4C)cc3C2)c2cc(F)ccc2n1` [Compound 20, 6-fluoro-2-methyl-4-[3-(2-methylpyrazol-3-yl)-7,8-dihydro-5H-1,6-naphthyridin-6-yl]quinazoline]: 86% and 150 nM.
The matching figures for `Fc1ccc2nc(C3CC3)nc(N3CCc4ncc(C(F)(F)F)cc4C3)c2c1` [Compound 178, 2-cyclopropyl-6-fluoro-4-[3-(trifluoromethyl)-7,8-dihydro-5H-1,6-naphthyridin-6-yl]quinazoline]: 112% and 1900 nM.
Turning to `Cc1nc(N2CCc3ncc(C(F)(F)F)cc3C2)c2ccc(F)cc2n1` [Compound 127, 7-fluoro-2-methyl-4-[3-(trifluoromethyl)-7,8-dihydro-5H-1,6-naphthyridin-6-yl]quinazoline], the Emax at 30 µM was determined as 63%. Also, under setting [1], the EC50 was found to be 430 nM.
On to `CN1CCN(c2cnc3c(c2)CN(c2ncnc4ccc(F)cc24)CC3)CC12COC2` [Compound 283, 8-(6-(6-fluoroquinazolin-4-yl)-5,6,7,8-tetrahydro-1,6-naphthyridin-3-yl)-5-methyl-2-oxa-5,8-diazaspiro[3.5]nonane], for which the Emax at 30 µM was found to be 99%. Further, under setting [1], the EC50 stood at 700 nM.
On to `Cn1cc(-c2cnc3c(c2)CN(c2nc(Cl)nc4cc(Cl)c(F)cc24)CC3)cn1` [Compound 62, 2,7-dichloro-6-fluoro-4-[3-(1-methylpyrazol-4-yl)-7,8-dihydro-5H-1,6-naphthyridin-6-yl]quinazoline], for which the maximum response (Emax) at 30 µM amounted to 34%. In addition, under setting [1], the EC50 stood at 410 nM.
On the same counts, the results for `Cc1nc(N2CCc3ncc(N4CCO[C@H](c5ccccc5)C4)cc3C2)c2cc(F)ccc2n1` [Compound 217, (R)-4-(6-(6-fluoro-2-methylquinazolin-4-yl)-5,6,7,8-tetrahydro-1,6-naphthyridin-3-yl)-2-phenylmorpholine] are 84% and 1700 nM.
The matching figures for `Clc1nc(N2CCc3ncc(N4CCCn5nccc54)cc3C2)c2cccnc2n1` [Compound 94, 2-chloro-4-[3-(6,7-dihydro-5H-pyrazolo[1,5-a]pyrimidin-4-yl)-7,8-dihydro-5H-1,6-naphthyridin-6-yl]pyrido[2,3-d]pyrimidine]: 88% and 130 nM.
The matching figures for `COc1ccc2ncnc(N3CCc4ncc(-c5cnc(F)cc5C)cc4C3)c2c1` [Compound 308, 4-(3-(6-fluoro-4-methylpyridin-3-yl)-7,8-dihydro-1,6-naphthyridin-6(5H)-yl)-6-methoxyquinazoline]: 71% and 110 nM.
`Fc1ccc2ncnc(N3CCc4ncc(N5CCc6ncccc65)cc4C3)c2c1` [Compound 319, 4-(3-(2,3-dihydro-1H-pyrrolo[3,2-b]pyridin-1-yl)-7,8-dihydro-1,6-naphthyridin-6(5H)-yl)-6-fluoroquinazoline]: the Emax at 30 µM was 74%. Under setting [1], the EC50 came out at 30 nM.
The matching figures for `Cc1nc(N2CCc3ncc(C(F)(F)F)cc3C2)c2c(Cl)cccc2n1` [Compound 132, 5-chloro-2-methyl-4-[3-(trifluoromethyl)-7,8-dihydro-5H-1,6-naphthyridin-6-yl]quinazoline]: 32% and greater than 10000 nM.
The matching figures for `Cc1nc(N2CCc3ncc(N4CCOC(c5cccnc5)C4)cc3C2)c2cc(F)ccc2n1` (stereo not drawn) [Compound 230, 4-(6-(6-fluoro-2-methylquinazolin-4-yl)-5,6,7,8-tetrahydro-1,6-naphthyridin-3-yl)-2-(pyridin-3-yl)morpholine]: 86% and 500 nM.
Take `Cc1ccccc1-c1cnc2c(c1)CN(c1ncnc3ccc(F)cc13)CC2` [Compound 292, 6-fluoro-4-(3-(o-tolyl)-7,8-dihydro-1,6-naphthyridin-6(5H)-yl)quinazoline]: the Emax at 30 µM is 79%. Moreover, under setting [1], the EC50 turned out to be 660 nM.
As to `COc1ccc2nc(C)nc(N3CCc4ncc(C(F)(F)F)cc4C3)c2c1` [Compound 168, 6-methoxy-2-methyl-4-[3-(trifluoromethyl)-7,8-dihydro-5H-1,6-naphthyridin-6-yl]quinazoline], the Emax at 30 µM came out at 71%. In addition, the EC50 under setting [1] turned out to be 510 nM.
On the same counts, the results for `COc1ccc2nc(C)nc(N3CCc4ncc(-c5cc(F)ccc5C)cc4C3)c2c1` [Compound 313, 4-(3-(5-fluoro-2-methylphenyl)-7,8-dihydro-1,6-naphthyridin-6(5H)-yl)-6-methoxy-2-methylquinazoline] are 52% and 4360 nM.
With `Cc1ccc2ncnc(N3CCc4ncc(N5CCC(C(F)(F)F)n6nccc65)cc4C3)c2c1` (stereo not drawn) [Compound 91, 6-methyl-4-[3-[7-(trifluoromethyl)-6,7-dihydro-5H-pyrazolo[1,5-a]pyrimidin-4-yl]-7,8-dihydro-5H-1,6-naphthyridin-6-yl]quinazoline], the Emax at 30 µM was found to be 116%. The EC50 under setting [1] turned out to be 130 nM.
Turning to `Cc1ccc(F)c(Oc2cnc3c(c2)CN(c2ncnc4ccc(Cl)cc24)CC3)c1` [Compound 152, 6-chloro-4-[3-(2-fluoro-5-methyl-phenoxy)-7,8-dihydro-5H-1,6-naphthyridin-6-yl]quinazoline], the Emax at 30 µM was determined as 72%. Under setting [1], the EC50 was found to be 5290 nM.
On the same counts, the results for `Cc1ccc2ncnc(N3CCc4ncc(-c5cn(C)nc5C)cc4C3)c2c1` [Compound 14, 4-[3-(1,3-dimethylpyrazol-4-yl)-7,8-dihydro-5H-1,6-naphthyridin-6-yl]-6-methyl-quinazoline] are 117% and 160 nM.
In the case of `Fc1ccc2ncnc(N3CCc4ncc(-n5cccn5)cc4C3)c2c1` [Compound 68, 6-fluoro-4-(3-pyrazol-1-yl-7,8-dihydro-5H-1,6-naphthyridin-6-yl)quinazoline], the Emax (CHO-K1) amounted to 88%. Besides, the EC50 (Human M4 EC50, human M4) came out at 220 nM.
`Cc1ccc(-c2cnc3c(c2)CN(c2nc(C)nc4ccc(C(F)(F)F)cc24)CC3)cn1` [Compound 58, 2-methyl-4-[3-(6-methyl-3-pyridyl)-7,8-dihydro-5H-1,6-naphthyridin-6-yl]-6-(trifluoromethyl)quinazoline]: the Emax at 30 µM worked out at 45%. In addition, the EC50 under setting [1] came out at 1220 nM.
The matching figures for `Cc1nc(N2CCc3ncc(-c4cnc(C)s4)cc3C2)c2cc(C(F)(F)F)ccc2n1` [Compound 56, 2-methyl-5-[6-[2-methyl-6-(trifluoromethyl)quinazolin-4-yl]-7,8-dihydro-5H-1,6-naphthyridin-3-yl]thiazole]: 45% and 1930 nM.
On the same counts, the results for `Cc1nc(N2CCc3ncc(Nc4ccnn4C)cc3C2)c2cc(F)ccc2n1` [Compound 86, 6-(6-fluoro-2-methyl-quinazolin-4-yl)-N-(2-methylpyrazol-3-yl)-7,8-dihydro-5H-1,6-naphthyridin-3-amine] are 91% and 30 nM.
The matching figures for `Fc1ccc2nc(Nc3ccccc3F)nc(N3CCc4ncc(C(F)(F)F)cc4C3)c2c1` [Compound 200, 6-fluoro-N-(2-fluorophenyl)-4-[3-(trifluoromethyl)-7,8-dihydro-5H-1,6-naphthyriidn-6-yl]quinazolin-2-amine]: 63% and greater than 10000 nM.
Regarding `Cc1nc(N2CCc3ncc(C(F)(F)F)cc3C2)c2cc(C3CC3)ccc2n1` [Compound 143, 6-cyclopropyl-2-methyl-4-[3-(trifluoromethyl)-7,8-dihydro-5H-1,6-naphthyridin-6-yl]quinazoline], the Emax at 30 µM was determined as 77%. Besides, the EC50 under setting [1] is 1420 nM.
For `Cc1nc(N2CCc3ncc(-c4cn(C)nc4C)cc3C2)c2cc(F)ccc2n1` [Compound 10, 4-[3-(1,3-dimethylpyrazol-4-yl)-7,8-dihydro-5H-1,6-naphthyridin-6-yl]-6-fluoro-2-methyl-quinazoline], the Emax at 30 µM stood at 90%. For the same compound, the EC50 under setting [1] was found to be 120 nM.
The matching figures for `Fc1cc2ncnc(N3CCc4ncc(N5CCCn6nccc65)cc4C3)c2cc1F` [Compound 93, 4-[3-(6,7-dihydro-5H-pyrazolo[1,5-a]pyrimidin-4-yl)-7,8-dihydro-5H-1,6-naphthyridin-6-yl]-6,7-difluoro-quinazoline]: 109% and 50 nM.

One may read the Emax as the maximal effect, on the per cent scale that the assay sets. As a reminder, the EC50 is the midpoint of the concentration-response curve.

These data come from patent publication US20250026752A1, “POSITIVE ALLOSTERIC MODULATORS OF THE MUSCARINIC ACETYLCHOLINE RECEPTOR M4” (Vanderbilt University, priority 2021, published 2025).
